Legend:
SN45 TCR = test: Biolayer interferometry of SN45 TCR with lipopeptide-bound MHC class I complexes; type: binding, rhesus monkey
Source text: Cell-based analyses may be influenced by undefined factors related to the use of live cells and serum components. Therefore, we first sought to validate the separation of the two groups at the molecular level. To this end, we investigated the kinetics of TCR–lipopeptide interactions in biolayer interferometry experiments. […] All refolded complexes were purified by size-exclusion and anion-exchange chromatography, and nearly identical elution profiles were obtained for each lipopeptide sample. […]
Figure 1 Biolayer interferometry analysis of interactions between the SN45 TCR and lipopeptide-bound Mamu-B∗05104 complexes. The molecular interaction kinetics of SN45 TCR and lipopeptide-bound Mamu-B∗05104 complexes were assessed using the Octet RED96 system, in which biotinylated SN45 TCR proteins were immobilized on streptavidin-coated sensors, and serially diluted Mamu-B∗05104 complexes were applied as analytes. […]
Biomolecular interaction analyses were performed using the Octet RED96 system equipped with a streptavidin-conjugated biosensor (Sartorius), according to the manufacturer’s instructions. […] A shift in the interference pattern was monitored in real time during this period. […]

[1] = test system: J.RT3/SN45 (SN45 TCR-reconstituted Jurkat T-cell line); conditions: J.RT3/SN45 responder T cells; cited from earlier work
Source text: J.RT3, a TCR-deficient Jurkat cell line, was transfected with SN45-derived TCRα and TCRβ complementary DNAs in a previous study. The SN45 TCR-reconstituted T-cell line (J.RT3/SN45) was used as responder T cells to compare antigenic activities among C14nef4-related analogs.

Row | Substance | antigenic group by biolayer interferometry (highly / poorly antigenic) (SN45 TCR; lipopeptide-bound Mamu-B∗05104 complex as analyte on immobilized SN45 TCR) | antigenic activity group (highly / poorly antigenic) [1] | binding to the SN45 TCR (SN45 TCR; C14nef5-bound Mamu-B∗098 complex as analyte, negative control)
1 | C14-Gly1-Gly2-Ala3-Ile4 [C14nef4] | highly antigenic | highly antigenic | 
2 | C14-Gly1-Gly2-Ala3-Ile4-Ser5 [C14nef5, reference compound] |  |  | failed to bind

From paper PMC12804144, “Lipopeptide ligands captured by MHC class I molecules undergo dynamic conformational changes that affect their antigenic strength” (The Journal of Biological Chemistry, 2025)
